According to paper PMC10507085, “Pharmacological inhibition of TBK1/IKKε blunts immunopathology in a murine model of SARS-CoV-2 infection” (Nature Communications, 2023):

Key:
Assay in all cases: biochemical
Design in all cases: KINOMEscan competition binding, DNA-tagged kinase against immobilised ligand, qPCR read-out
Conditions in all cases: read-out: Percent Control
EPHA3 = EPHA3 (Homo sapiens, UniProt P29320)
MAPK10 = MAPK10 (Homo sapiens, UniProt P53779)
GSK3A = GSK3A (Homo sapiens, UniProt P49840)
Sequence of GSK3A (P49840 whole entry): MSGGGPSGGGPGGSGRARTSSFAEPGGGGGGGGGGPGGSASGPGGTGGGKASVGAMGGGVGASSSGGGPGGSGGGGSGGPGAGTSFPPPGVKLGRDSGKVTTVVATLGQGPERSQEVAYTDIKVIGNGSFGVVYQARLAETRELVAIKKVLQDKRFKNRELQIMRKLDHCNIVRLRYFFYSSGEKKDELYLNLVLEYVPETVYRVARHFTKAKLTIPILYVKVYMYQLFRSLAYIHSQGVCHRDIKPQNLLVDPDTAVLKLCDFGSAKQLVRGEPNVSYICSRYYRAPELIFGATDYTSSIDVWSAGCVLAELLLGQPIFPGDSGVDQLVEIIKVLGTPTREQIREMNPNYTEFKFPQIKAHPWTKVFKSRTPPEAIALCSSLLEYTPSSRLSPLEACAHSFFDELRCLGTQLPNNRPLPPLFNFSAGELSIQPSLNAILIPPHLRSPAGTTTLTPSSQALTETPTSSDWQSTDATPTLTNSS

FGFR2 = FGFR2 (Homo sapiens, UniProt P21802)
STK10 = STK10 (Homo sapiens, UniProt O94804)
STK25 = STK25 (Homo sapiens, UniProt O00506)
Sequence of STK25 (O00506 whole entry): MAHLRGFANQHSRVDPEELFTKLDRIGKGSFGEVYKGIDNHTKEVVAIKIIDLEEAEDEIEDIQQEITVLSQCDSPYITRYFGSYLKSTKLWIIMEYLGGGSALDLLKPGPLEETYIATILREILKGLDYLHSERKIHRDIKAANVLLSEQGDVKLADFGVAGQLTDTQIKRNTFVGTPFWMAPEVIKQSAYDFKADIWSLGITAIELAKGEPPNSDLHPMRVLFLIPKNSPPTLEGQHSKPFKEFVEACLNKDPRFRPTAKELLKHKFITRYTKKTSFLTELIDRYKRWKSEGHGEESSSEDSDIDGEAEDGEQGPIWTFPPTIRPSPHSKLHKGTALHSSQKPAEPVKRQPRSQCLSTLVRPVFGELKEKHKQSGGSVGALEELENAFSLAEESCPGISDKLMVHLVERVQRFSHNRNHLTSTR

EGFR = EGFR (Homo sapiens, UniProt P00533)
ROCK2 = ROCK2 (Homo sapiens, UniProt O75116)
Sequence of ROCK2 (O75116 whole entry): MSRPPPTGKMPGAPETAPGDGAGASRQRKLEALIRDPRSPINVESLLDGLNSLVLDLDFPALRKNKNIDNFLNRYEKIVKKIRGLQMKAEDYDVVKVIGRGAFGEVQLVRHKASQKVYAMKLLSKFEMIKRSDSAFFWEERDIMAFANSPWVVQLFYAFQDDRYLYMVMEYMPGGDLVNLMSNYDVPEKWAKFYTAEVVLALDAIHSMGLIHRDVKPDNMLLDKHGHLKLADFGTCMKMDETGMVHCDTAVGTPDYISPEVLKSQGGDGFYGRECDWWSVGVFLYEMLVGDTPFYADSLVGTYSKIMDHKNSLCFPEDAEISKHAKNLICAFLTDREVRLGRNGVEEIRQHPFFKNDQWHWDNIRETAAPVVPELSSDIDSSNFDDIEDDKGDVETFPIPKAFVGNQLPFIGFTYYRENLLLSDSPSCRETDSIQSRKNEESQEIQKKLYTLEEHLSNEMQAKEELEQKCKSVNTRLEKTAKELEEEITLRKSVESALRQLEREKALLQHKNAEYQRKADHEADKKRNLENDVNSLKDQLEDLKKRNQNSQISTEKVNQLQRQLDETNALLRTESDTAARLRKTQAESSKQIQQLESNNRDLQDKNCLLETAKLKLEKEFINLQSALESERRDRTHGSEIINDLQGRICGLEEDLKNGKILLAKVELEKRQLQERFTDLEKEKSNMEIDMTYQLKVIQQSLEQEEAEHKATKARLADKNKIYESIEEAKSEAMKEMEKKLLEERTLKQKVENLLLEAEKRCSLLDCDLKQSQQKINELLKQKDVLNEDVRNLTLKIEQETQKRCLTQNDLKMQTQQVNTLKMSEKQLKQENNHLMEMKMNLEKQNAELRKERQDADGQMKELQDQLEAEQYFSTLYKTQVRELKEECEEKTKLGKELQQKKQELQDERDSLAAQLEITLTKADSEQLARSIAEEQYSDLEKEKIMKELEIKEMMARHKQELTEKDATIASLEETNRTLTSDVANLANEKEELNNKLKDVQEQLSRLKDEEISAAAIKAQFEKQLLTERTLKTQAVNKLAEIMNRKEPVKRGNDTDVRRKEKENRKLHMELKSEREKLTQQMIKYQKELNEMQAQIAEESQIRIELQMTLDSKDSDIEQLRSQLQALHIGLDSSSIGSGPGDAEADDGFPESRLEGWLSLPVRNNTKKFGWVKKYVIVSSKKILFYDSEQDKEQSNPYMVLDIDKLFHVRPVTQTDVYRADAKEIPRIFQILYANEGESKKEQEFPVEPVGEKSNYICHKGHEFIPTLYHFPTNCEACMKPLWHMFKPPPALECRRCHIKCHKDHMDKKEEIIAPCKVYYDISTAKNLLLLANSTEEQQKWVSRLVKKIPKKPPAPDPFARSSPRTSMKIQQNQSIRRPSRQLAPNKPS

STK32A = STK32A (Homo sapiens, UniProt Q8WU08)
Sequence of STK32A (Q8WU08 whole entry): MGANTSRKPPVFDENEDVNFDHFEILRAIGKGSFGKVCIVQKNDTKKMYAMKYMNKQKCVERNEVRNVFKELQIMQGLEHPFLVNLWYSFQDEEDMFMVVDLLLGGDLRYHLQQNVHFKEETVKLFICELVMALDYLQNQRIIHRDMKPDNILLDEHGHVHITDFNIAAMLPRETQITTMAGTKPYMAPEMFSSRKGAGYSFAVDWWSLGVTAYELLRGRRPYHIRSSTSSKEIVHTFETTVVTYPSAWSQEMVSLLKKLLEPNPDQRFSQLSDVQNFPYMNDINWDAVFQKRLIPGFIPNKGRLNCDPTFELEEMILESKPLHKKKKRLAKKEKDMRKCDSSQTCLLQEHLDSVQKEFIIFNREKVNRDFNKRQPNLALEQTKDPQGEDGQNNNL

STK36 = STK36 (Homo sapiens, UniProt Q9NRP7)
AURKB = AURKB (Homo sapiens, UniProt Q96GD4)
Sequence of AURKB (Q96GD4 whole entry): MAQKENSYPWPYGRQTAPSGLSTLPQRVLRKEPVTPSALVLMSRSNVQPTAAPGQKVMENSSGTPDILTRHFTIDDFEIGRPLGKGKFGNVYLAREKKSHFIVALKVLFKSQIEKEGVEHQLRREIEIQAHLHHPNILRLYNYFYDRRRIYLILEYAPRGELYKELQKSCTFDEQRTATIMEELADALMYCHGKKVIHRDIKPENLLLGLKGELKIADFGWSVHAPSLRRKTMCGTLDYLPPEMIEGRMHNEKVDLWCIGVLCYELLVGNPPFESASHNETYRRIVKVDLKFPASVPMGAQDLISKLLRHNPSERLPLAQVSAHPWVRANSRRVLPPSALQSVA

ACVR2B = ACVR2B (Homo sapiens, UniProt Q13705)
Sequence of ACVR2B (Q13705 whole entry): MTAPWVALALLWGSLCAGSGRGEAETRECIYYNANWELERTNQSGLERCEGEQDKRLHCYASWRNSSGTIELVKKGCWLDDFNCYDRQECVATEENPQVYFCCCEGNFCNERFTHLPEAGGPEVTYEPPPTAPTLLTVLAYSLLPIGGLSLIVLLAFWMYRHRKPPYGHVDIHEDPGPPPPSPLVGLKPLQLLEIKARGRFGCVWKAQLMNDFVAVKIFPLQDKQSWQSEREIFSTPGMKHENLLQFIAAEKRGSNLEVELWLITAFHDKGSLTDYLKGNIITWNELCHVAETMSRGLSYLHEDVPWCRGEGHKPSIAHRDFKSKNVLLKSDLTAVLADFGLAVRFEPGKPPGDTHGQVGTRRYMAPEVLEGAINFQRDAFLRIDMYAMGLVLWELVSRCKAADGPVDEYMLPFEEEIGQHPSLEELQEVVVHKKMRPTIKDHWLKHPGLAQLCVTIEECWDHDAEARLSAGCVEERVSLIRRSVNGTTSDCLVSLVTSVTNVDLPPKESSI

ALK = ALK (Homo sapiens, UniProt Q9UM73)

Sequence of EPHA3 (P29320 whole entry): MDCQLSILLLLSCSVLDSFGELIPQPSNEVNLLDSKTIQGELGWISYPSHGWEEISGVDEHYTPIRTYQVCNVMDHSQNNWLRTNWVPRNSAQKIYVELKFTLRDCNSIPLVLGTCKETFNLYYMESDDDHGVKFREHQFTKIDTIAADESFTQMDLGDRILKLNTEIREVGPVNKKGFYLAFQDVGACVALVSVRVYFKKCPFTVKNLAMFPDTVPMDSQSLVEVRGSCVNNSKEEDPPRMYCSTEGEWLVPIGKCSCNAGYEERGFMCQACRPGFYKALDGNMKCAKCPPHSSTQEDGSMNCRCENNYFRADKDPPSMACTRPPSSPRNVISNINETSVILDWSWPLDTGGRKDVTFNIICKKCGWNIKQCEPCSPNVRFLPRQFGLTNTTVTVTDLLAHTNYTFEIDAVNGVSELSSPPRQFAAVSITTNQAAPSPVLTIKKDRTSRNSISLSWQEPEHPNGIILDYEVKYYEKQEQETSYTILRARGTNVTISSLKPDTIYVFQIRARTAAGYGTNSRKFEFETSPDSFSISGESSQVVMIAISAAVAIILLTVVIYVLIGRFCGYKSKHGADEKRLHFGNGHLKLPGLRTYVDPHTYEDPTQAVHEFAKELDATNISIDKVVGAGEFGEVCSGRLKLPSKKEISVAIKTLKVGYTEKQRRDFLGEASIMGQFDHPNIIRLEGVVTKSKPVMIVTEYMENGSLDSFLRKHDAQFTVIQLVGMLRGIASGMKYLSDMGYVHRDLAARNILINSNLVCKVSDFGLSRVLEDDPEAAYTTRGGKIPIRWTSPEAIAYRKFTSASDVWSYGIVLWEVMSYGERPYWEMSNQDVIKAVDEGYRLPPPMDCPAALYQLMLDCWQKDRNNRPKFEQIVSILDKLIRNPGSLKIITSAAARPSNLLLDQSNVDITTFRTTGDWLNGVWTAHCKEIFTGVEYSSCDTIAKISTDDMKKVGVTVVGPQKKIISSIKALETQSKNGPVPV
Sequence of MAPK10 (P53779 whole entry): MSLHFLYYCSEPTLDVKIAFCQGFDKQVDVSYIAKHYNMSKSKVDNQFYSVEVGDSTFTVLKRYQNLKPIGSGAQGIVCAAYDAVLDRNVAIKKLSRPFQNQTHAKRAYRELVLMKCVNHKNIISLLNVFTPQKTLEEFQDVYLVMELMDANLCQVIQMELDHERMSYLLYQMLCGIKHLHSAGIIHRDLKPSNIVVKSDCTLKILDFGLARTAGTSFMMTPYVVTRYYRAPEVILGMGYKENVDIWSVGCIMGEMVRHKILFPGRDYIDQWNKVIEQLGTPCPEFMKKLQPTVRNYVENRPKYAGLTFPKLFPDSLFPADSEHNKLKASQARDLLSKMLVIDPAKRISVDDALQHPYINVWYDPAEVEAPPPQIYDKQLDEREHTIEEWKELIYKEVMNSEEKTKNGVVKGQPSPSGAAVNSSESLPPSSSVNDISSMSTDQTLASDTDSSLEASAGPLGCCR

## Oc1ccc(C2=Cc3ccc(O)cc3OC2)cc1 [compound 1, idronoxil]
EPHA3
  remaining binding at 10 µM: 89%
MAPK10
  remaining binding at 10 µM: 93%
GSK3A
  remaining binding at 10 µM: 74%
FGFR2
  remaining binding at 10 µM: 80%
STK10
  remaining binding at 10 µM: 100%
STK25
  remaining binding at 10 µM: 77%
EGFR
  remaining binding at 10 µM: 83%
ROCK2
  remaining binding at 10 µM: 82%
STK32A
  remaining binding at 10 µM: 94%
STK36
  remaining binding at 10 µM: 78%
AURKB
  remaining binding at 10 µM: 12%
ACVR2B
  remaining binding at 10 µM: 53%
ALK
  remaining binding at 10 µM: 68%
